Source: paper PMC9775652, “Concomitant Administration of Red Ginseng Extract with Lactic Acid Bacteria Increases the Plasma Concentration of Deglycosylated Ginsenosides in Healthy Human Subjects” (Biomolecules, 2022)
Read-outs that look alike come from different tables or passages of the source.

What was measured:
LAB [1] = test: Incubation of individual ginsenosides with LAB (metabolic pathway); type: in vitro ADME; conditions: individual ginsenoside 10 μM with LAB (1 billion CFU), 7 days; GF2 to CK, CK to PPD, GRg1 to GRh1; result in words
Procedure: (§1) To identify the effects of LAB on ginsenoside metabolism, an in vitro fermentation study was performed according to the method of Jeon et al., with slight modifications. Briefly, RGE (10 mL, 1 pouch) and 2 g LAB (containing 1 billion CFU) were suspended in 10 mL autoclaved MRS broth (550 mg broth powder dissolved in 10 mL water). For the 15 ginsenosides, individual ginsenosides (10 μM each) and 2 g of LAB were suspended in 20 mL of autoclaved MRS broth (550 mg broth powder dissolved in 20 mL water). The mixture was incubated for 7 days in a shaking incubator at 37 °C and 300 rpm, and a 0.1 mL aliquot of the incubation mixture was collected on days 0, 3, 5, and 7. The incubation medium was diluted 100-fold with distilled water and stored at −80 °C to analyze ginsenosides using the LC-MS/MS system.
(§2) To measure the metabolic activity of ginsenosides, the formation rate of ginsenosides (pmol/day) was calculated by dividing the slope of the regression line by the amount of deglycosylated ginsenosides versus the incubation time plot by the initial concentration of individual ginsenosides.

[2] = rat, in vivo, po; cited from earlier work
[3] = Pharmacokinetic study of ginsenosides in healthy humans after repeated oral RGE with or without LAB; type: in vivo, human; conditions: human, in vivo, po; for AUC: 104.1 mg
Procedure: A single-sequence study consisting of two periods was conducted on five healthy male subjects (body weight > 50 kg and age > 19 years) for 29 days. During the first period of the study (RGE treatment group), three pouches of RGE (30 mL, 104.1 mg of total ginsenosides) were administered to 5 subjects once daily for 14 days. On the 14th day, the subjects were admitted to the Clinical Trial Center of KNUH at 7 AM and underwent the last RGE administration at approximately 8–9 AM. Blood samples (approximately 3 mL) were collected at 0, 4, 6, 8, 10, 12, 13, 14, and 24 h after the last dose. A saline-locked angiocatheter was placed on the forearm of each subject’s hand. After discarding 1 mL of blood derived from the catheter, 3 mL of blood was drawn into a vacutainer tube containing heparin and centrifuged at 3000× g for 10 min. The supernatant plasma samples were stored at −80 °C until ginsenoside analysis.
In the second half of the study (RGE + LAB treatment group), 3 pouches of RGE (30 mL, 104.1 mg of total ginsenosides) and 1 pouch of LAB (1 billion CFU/2 g) were co-administered once daily for 14 days. On the […], the subjects were admitted to the Clinical Trial Center of KNUH at 7 AM and received the last red ginseng dose at approximately 8–9 AM. Blood samples (approximately 3 mL) were withdrawn at 0, 4, 6, 8, 10, 12, 13, 14, and 24 h intervals after the last dose and centrifuged at 3000× g for 10 min; the supernatant plasma samples were stored at −80 °C.
Briefly, to analyze GRb1, GRb2, GRc, GRd, GRe, GRf, GRg1, GRg3, GF1, and GF2, 400 μL of an internal standard (IS; 0.05 ng/mL berberine in methanol) was added to 100 μL of plasma. The mixture was vortexed for 15 min and centrifuged at 16,000× g for 5 min. After centrifugation, 400 μL of the supernatant was evaporated using a speed-dry vacuum concentrator (Christ, Osterode am Harz, Germany). The residue was reconstituted using 200 μL of 70% methanol supplemented with 0.1% formic acid, and a 10 μL aliquot was injected into the LC-MS/MS system. Chromatographic separation was performed using a Polar RP column (150 × 2.0 mm, 4.0 μm particle size; Phenomenex, Torrance, CA, USA) using a mobile phase consisting of 0.1% formic acid in water (phase A) and 0.1% formic acid in methanol (phase B). The following elution gradient was used: 69% of phase B for 0–2.0 min, 69–85% of phase B for 2.0–4.0 min, and 85–69% of phase B for 6.0–6.5 min. The flow rate was 0.27 mL/min.
The mixture was vortexed for 10 min and centrifuged at 16,000× g for 5 min. After centrifugation, the samples were frozen at −80 °C for 4 h. The upper layer was transferred to a clean tube and evaporated. The residue was reconstituted using 200 μL of 80% methanol supplemented with 0.1% formic acid, and a 10 μL aliquot was injected into the LC-MS/MS system. Chromatographic separation was performed using a Luna C18 column (150 × 2.0 mm, 3.0 μm particle size; Phenomenex, Torrance, CA, USA) and using a mobile phase consisting of water containing 0.1% formic acid: methanol containing 0.1% formic acid = 8:92 (v/v) at a flow rate of 0.15 mL/min.
The quantification of ginsenosides was carried out using multiple reaction monitoring in positive ionization mode, as previously described.
Finally, pharmacokinetic parameters were calculated using non-compartmental methods (WinNonlin version 5.1; Pharsight Co., Certara, NJ, USA). Statistical analysis was performed by Student’s t-test to compare the two groups using IBM SPSS Statistics for Windows (version 25.0; IBM Corp., Armonk, NY, USA). Differences were considered significant at p < 0.05.

P-gp = target: T1, P-gp (Homo sapiens, UniProt P08183); test: Transport of ginsenosides in P-gp-overexpressing LLC-PK1-P-gp cells; type: in vitro ADME; conditions: pig
T1 construct: host or cells: LLC-PK1-P-gp cells (passage no. 25–28)
T1 sequence (P08183 whole entry): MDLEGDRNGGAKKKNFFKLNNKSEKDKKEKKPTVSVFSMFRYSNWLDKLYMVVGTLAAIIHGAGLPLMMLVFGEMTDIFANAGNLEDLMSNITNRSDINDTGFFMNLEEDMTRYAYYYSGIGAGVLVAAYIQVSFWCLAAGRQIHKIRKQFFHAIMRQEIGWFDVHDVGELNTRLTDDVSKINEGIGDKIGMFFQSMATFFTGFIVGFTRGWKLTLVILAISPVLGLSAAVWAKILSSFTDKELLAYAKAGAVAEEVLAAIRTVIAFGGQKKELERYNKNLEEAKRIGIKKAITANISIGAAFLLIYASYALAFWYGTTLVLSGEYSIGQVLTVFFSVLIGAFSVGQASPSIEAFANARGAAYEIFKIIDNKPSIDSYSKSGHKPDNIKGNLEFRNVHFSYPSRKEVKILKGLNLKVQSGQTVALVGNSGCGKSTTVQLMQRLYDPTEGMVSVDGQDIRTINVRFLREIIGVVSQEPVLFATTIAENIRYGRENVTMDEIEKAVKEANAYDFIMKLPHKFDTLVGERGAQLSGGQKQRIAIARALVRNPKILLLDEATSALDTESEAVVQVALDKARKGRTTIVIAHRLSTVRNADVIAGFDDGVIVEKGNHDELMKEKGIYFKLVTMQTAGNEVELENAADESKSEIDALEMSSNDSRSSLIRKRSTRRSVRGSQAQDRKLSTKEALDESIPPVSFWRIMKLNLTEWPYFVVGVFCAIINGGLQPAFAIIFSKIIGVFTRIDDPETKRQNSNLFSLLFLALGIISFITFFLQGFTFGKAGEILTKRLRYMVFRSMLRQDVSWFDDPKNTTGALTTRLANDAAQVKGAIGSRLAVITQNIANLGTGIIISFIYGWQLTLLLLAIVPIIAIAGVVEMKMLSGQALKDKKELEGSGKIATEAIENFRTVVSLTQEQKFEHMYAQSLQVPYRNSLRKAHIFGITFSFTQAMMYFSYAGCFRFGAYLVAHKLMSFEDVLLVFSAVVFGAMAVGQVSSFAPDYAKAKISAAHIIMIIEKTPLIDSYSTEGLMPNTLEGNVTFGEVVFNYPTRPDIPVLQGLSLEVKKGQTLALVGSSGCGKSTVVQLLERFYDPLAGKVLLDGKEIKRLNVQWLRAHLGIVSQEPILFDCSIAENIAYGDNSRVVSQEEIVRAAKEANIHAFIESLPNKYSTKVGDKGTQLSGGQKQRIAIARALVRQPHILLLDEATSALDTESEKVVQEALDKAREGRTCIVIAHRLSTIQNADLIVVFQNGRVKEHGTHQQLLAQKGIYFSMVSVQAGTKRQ
Procedure: LLC-PK1-P-gp cells (passage no. 25–28) were seeded onto collagen-coated permeable support (1.0 μm pore size) in 24-well plates at a density of 2.5 × 10^4 cells/insert and grown for 5 days with TEER values of over 500 Ω·cm^2 [24]. The A to B transport and B to A transport of GRg3, GRh2, CK, PPD, GRg1, GRh1, and PPT (20 μM each) were measured as previously described. The concentration dependency in the B to A transport of GRh2, CK, PPD, and PPT was measured in the range of 6.25–200 μM for GRh2, CK, PPD, and PPT.
(§3) For the transport study of ginsenosides in CaCo-2 cells and LLC-PK1-P-gp cells, the ginsenoside transport rate in the A to B or B to A directions was calculated from the slope of the regression line from the mean transported amounts versus time plot. The apparent permeability (Papp) was calculated using Equation (1). (1) Papp (×10^−6 cm/s)=transport rate (nmol/min)/concentration(μM)×area(cm^2)×60s
(§4) The efflux ratio was calculated by dividing the Papp of ginsenosides from the B to A direction by that from the A to B direction.
To measure the kinetic parameters of the concentration dependence on the P-gp-mediated ginsenoside efflux, the ginsenoside transport rate in the B to A direction (ν) versus the ginsenoside concentration (S) plot was fitted in the Michaelis–Menten Equation (2) using Sigma Plot (version 12.0, Systat Software Inc. Chicago, IL, USA). (2) ν=Vmax×S/Km+S

LAB [4] = test: In vitro RGE fermentation with LAB; type: in vitro ADME
Procedure: as §1, §2

[5] = Transport (permeability) of ginsenosides in CaCo-2 cell monolayers; type: in vitro ADME; conditions: human, Caco-2
Procedure: (§5) CaCo-2 cells (passage no 41–43) were seeded onto collagen-coated permeable support (1.0 μm pore size) in a 24-well plate at a density of 2.5 × 10^4 cells/insert and cultured for 21 days in Dulbecco’s modified eagle’s medium supplemented with 10% fetal bovine serum, 1% non-essential amino acids, and 1% penicillin-streptomycin at 37 °C in a humidified atmosphere (5% CO2/95% air). After confirming that the transepithelial electrical resistance (TEER) of the CaCo-2 cell monolayer was over 400 Ω·cm^2, Apical to basal (A to B) transport and B to A transport of ginsenosides using 50 µM, GRb1 was investigated as previously described. The same permeability study was performed using 50 µM GRb2, GRc, GRd, GRg3, GRh2, GF2, CK, PPD, GRe, GRf, GRg1, GRh1, GF1, or PPT.
as §3, §4

CaCo-2 cells = test: as above; type: in vitro ADME; conditions: Caco-2
Procedure: as §5, §3, §4

Cmax ([3]; male) [ng/mL]	AUC ([3]; male) [µg·h/mL]	MRT ([3]; male, MRT) [h]	Tmax ([3]; male, Tmax) [h]	Papp A→B at 20 μM (P-gp; LLC-PK1) [nm/s]	Papp B→A at 20 μM (P-gp; LLC-PK1) [nm/s]	CLint (intrinsic clearance) (P-gp; llc-pk1) [µL/min]	Relative abundance / metabolic activity following fermentation of RGE with LAB (LAB [4])	Cmax [3] [ng/mL]	MRT [3] [h]	Tmax [3] [h]	AUC [3] [µg·h/mL]	A to B Papp (CaCo-2 cells)	Structure (SMILES)	LAB-mediated deglycosylation (formation of deglycosylated ginsenoside from the incubated ginsenoside) (LAB [1])	Oral BA [2] [%]	Relative abundance / metabolic activity following fermentation of RGE with LAB (LAB [4]; RGE incubated with LAB (1 billion CFU) for 7 days at 37 °C, result in words)	Papp A→B at 50 µM [5] [nm/s]	Oral bioavailability (BA) [2]
5.1 ± 2.2	0.0579 ± 0.0166	17.2 ± 4.5	8 ± 4	1.4	82.5 ± 5.8	690							CC(C)=CCCC(C)(OC1OC(CO)C(O)C(O)C1O)C1CCC2(C)C1C(O)CC1C3(C)CCC(O)C(C)(C)C3CCC12C (stereo not shown) [CK, compound K]	the highest	4.3			
													CC(C)=CCCC(C)(OC1OC(CO)C(O)C(O)C1O)C1CCC2(C)C1C(O)CC1C3(C)CCC(OC4OC(CO)C(O)C(O)C4O)C(C)(C)C3CCC12C (stereo not shown) [GF2]	negligible		remained unchanged	< 3	
							marked decrease	2.1 ± 0.9	18.2 ± 1.4	7.5 ± 5.8	0.0379 ± 0.0126	below 0.3 × 10^−6 cm/s	CC(C)=CCC[C@](C)(O[C@@H]1O[C@H](CO)[C@@H](O)[C@H](O)[C@H]1O)[C@H]1CC[C@]2(C)[C@@H]1[C@H](O)C[C@@H]1[C@@]3(C)CC[C@H](O[C@@H]4O[C@H](CO)[C@@H](O)[C@H](O)[C@H]4O[C@@H]4O[C@H](CO)[C@@H](O)[C@H](O)[C@H]4O)C(C)(C)[C@@H]3CC[C@]12C [GRd]					less than 5%
